Reference: publication PMC4424274, “Evaluation of [^11C]CB184 for imaging and quantification of TSPO overexpression in a rat model of herpes encephalitis” (European Journal of Nuclear Medicine and Molecular Imaging, 2015)
Values joined by “and” are separate entries in the source; they are usually repeats but may differ in a detail not shown here. Equal values may be shown once.

Target: T1, TSPO (Rattus norvegicus, UniProt P16257)
T1 construct: from tissue; host or cells: Brain regions and peripheral organs of male Wistar rats, measured in vivo by PET and ex vivo by gamma counting
Test: Kinetic modelling of PET data (2TCMR, Logan): BPND and VT
Format: in vivo
Experimental: PET scans with arterial blood sampling were performed in a different set of rats to generate input for pharmacokinetic modelling. For the arterial blood sampling a cannula was inserted into the femoral artery after induction of anaesthesia. The femoral vein was additionally cannulated for PET tracer injection. After cannulation, the rats were positioned in the camera and a transmission scan was acquired using a ^57Co point source. […] A 0.1 ml blood sample of was taken at 0, 5, 10, 15, 20, 30, 45, 60, 75, 90, 120, 180, 300, 450, 600, 900, 1,800 and 3,600 s after injection. A larger blood sample of 0.5 ml was taken at three time points (5, 15, 30 and/or 60 min) for metabolite analysis. After collection of each blood sample, heparinized saline was injected to prevent large changes in blood pressure. A 25 μl aliquot of whole blood was extracted from each sample for radioactivity measurement. The remainder of each sample was centrifuged at 13,000 rpm (15,996 g) for 8 min, and 25 μl plasma was taken for radioactivity measurement. The radioactivity in blood and plasma was measured with a gamma counter.
The TACs of those rats in which blood sampling was performed, together with their corresponding whole-blood and metabolite-corrected plasma curves, were used for pharmacokinetic modelling using PMOD v3.3 (PMOD Technologies, Zürich, Switzerland). […] The reversible two-tissue compartment model (2TCMR) with K 1/k 2 fixed to the whole cortex value and a fixed blood volume of 3 % were used to calculate the V T and nondisplaceable binding potential (BPND, calculated as k 3/k 4 [29]).

[1] = control rats (PBS group), k3/k4

Q: `CCCN(CCC)C(=O)Cc1c(-c2ccc(O[11CH3])cc2)nc2c(Cl)cc(Cl)cn12` [[^11C]CB184] was tested. Which “Binding potential (BPND), Cerebellum” value (HSE group, k3/k4) did it give?
A: Its value is 3.83 ± 0.63.

Q: And the “Binding potential (BPND), Frontal cortex” value (HSE group, k3/k4)?
A: The value was 3.08 ± 1.20.

Q: And the “Binding potential (BPND), Hippocampus” value (HSE group, k3/k4)?
A: Its value is 2.44 ± 0.34.

Q: And the “Binding potential (BPND), Midbrain” value (HSE group, k3/k4)?
A: Its value is 2.50 ± 0.51.

Q: What about the “Binding potential (BPND), Olfactory bulb” value (HSE group, k3/k4) of the same compound?
A: Its value is 8.82 ± 2.97.

Q: And the “Binding potential (BPND), Rest cortices” value (HSE group, k3/k4)?
A: The value was 2.69 ± 0.47.

Q: What about the “Binding potential (BPND), Striatum” value (HSE group, k3/k4) of the same compound?
A: Its value is 1.91 ± 0.41.

Q: What about the “Binding potential (BPND), Thalamus” value (HSE group, k3/k4) of the same compound?
A: The value was 1.85 ± 0.41.

Q: What about the “Binding potential (BPND), Whole brain” value (HSE group, k3/k4) of the same compound?
A: Its value is 3.25 ± 0.41.

Q: And the “Binding potential (BPND), Amygdala” value [1]?
A: Its value is 2.4 ± 1.2 and 2.39 ± 1.23.

Q: What about the “Binding potential (BPND), Cerebellum” value [1] of the same compound?
A: The value was 2.88 ± 1.39.

Q: What about the “Binding potential (BPND), Frontal cortex” value [1] of the same compound?
A: Its value is 2.14 ± 1.23.

Q: And the “Binding potential (BPND), Hippocampus” value [1]?
A: Its value is 1.55 ± 0.90.

Q: And the “Binding potential (BPND), Hypothalamus” value [1]?
A: The value was 2.7 ± 1.6 and 2.74 ± 1.62.

Q: And the “Binding potential (BPND), Medulla” value [1]?
A: The value was 2.6 ± 1.2 and 2.64 ± 1.16.

Q: What about the “Binding potential (BPND), Midbrain” value [1] of the same compound?
A: The value was 1.73 ± 0.98.

Q: And the “Binding potential (BPND), Olfactory bulb” value [1]?
A: The value was 5.56 ± 2.67.

Q: What about the “Binding potential (BPND), Pons” value [1] of the same compound?
A: Its value is 2.6 ± 1.3 and 2.63 ± 1.31.

Q: What about the “Binding potential (BPND), Rest cortices” value [1] of the same compound?
A: Its value is 2.27 ± 1.37.

Q: What about the “Binding potential (BPND), Septum” value [1] of the same compound?
A: The value was 1.5 ± 0.9 and 1.53 ± 0.90.

Q: And the “Binding potential (BPND), Striatum” value [1]?
A: Its value is 1.28 ± 0.74.

Q: What about the “Binding potential (BPND), Thalamus” value [1] of the same compound?
A: Its value is 1.17 ± 0.78.

Q: And the “Binding potential (BPND), Whole brain” value [1]?
A: Its value is 2.25 ± 1.17.

Q: What about the “Increase of BPND in the medulla, HSE rats vs. control rats” value (medulla) of the same compound?
A: Its value is 93%.
